Like-named read-outs stand apart in the source and are kept apart here.
How the values were obtained:
BChE [1] = biological target: T1, BChE (Equus caballus, UniProt P81908); details: ref Xavier et al. 2015; cited from earlier work
Trypsin = test: Enzyme selectivity assay, trypsin; format: biochemical; details: mean ± SD
Experimental: (§1) To determine enzyme selectivity, trypsin, chymotrypsin, and elastase were analyzed using […], and N-succinyl-Ala-Ala-Ala-pNA as substrates, respectively. The reaction mixture was incubated for 20 min and the absorbance was measured at 410 nm.

AChE = AChE (Electrophorus electricus, UniProt O42275); details: Dixon and Lineweaver-Burk plots
Experimental: (§2) AChE or BChE (0.8 U/mL) was added to a mixture which contained 0.1 M sodium phosphate buffer, 5 mM DTNB, and a tested sample, and then incubated at 37 °C for 15 min.
(§3) The cholinesterases inhibition kinetics of zerumbone were analyzed using Dixon and Lineweaver-Burk plots. The dissociation constant (Ki) was determined by interpretation of the Dixon plot, and Vmax and Km were calculated by Lineweaver–Burk plots, using the initial velocities obtained over a substrate concentration range [11].

BChE [2] = biological target: T1, BChE; test: Anti-cholinesterase activity assay (modified Ellman method), BChE; format: biochemical
Experimental: as §2, §3

Elastase = biological target: T2, Elastase (Sus scrofa, UniProt P00772); test: Enzyme selectivity assay, elastase; format: biochemical; details: mean ± SD, read-out: Inhibitory activity (%) against Elastase
T2 construct: purchased Sigma-Aldrich
Experimental: as §1

Sprague–Dawley rats = details: 1 and 10 mg/kg; cited from earlier work
mice = details: cited from earlier work
Chymotrypsin = biological target: T3, Chymotrypsin (Bos taurus, UniProt P00766); test: Enzyme selectivity assay, chymotrypsin; format: biochemical; details: mean ± SD, read-out: Inhibitory activity (%) against Chymotrypsin
T3 construct: purchased Sigma-Aldrich
Experimental: as §1

BACE1 = biological target: T4, BACE1 (Homo sapiens, UniProt P56817); test: BACE1 FRET assay; format: biochemical; details: mean ± SD, read-out: Inhibitory activity (%) against BACE1
T4 construct: purchased Thermo Fisher Scientific, Inc; host or cells: baculovirus expression system
Experimental: To evaluate BACE1 inhibitory activity, a BACE1 FRET assay kit with a recombinant baculovirus-expressed BACE1 and a Rh-[…]-Quencher substrate was used. Briefly, a mixture of BACE1 (1.0 U/mL), the substrate, and tested sample at a different concentration, was incubated for 60 min at 25 °C in well plates. The increase in fluorescence intensity was measured by a fluorescence microplate reader at excitation and emission wavelengths of 545/590 nm (FLX800, Winooski, VT, USA). The inhibitory ratio (%) was calculated using the formula: Inhibition (%) = [1 − (S − S0)/(C − C0)] × 100, where C is the absorbance of control after 60 min of incubation, C0 is the absorbance of control at time 0, S was the absorbance of samples after 60 min of incubation, and S0 was the absorbance of the samples at time 0.

transgenic APP/PS1 mice = details: 25 mg/kg; cited from earlier work
[3] = tested on: oxidative stress related inflammation and cancer cell proliferation; details: cited from earlier work

T1 sequence (P81908 whole entry): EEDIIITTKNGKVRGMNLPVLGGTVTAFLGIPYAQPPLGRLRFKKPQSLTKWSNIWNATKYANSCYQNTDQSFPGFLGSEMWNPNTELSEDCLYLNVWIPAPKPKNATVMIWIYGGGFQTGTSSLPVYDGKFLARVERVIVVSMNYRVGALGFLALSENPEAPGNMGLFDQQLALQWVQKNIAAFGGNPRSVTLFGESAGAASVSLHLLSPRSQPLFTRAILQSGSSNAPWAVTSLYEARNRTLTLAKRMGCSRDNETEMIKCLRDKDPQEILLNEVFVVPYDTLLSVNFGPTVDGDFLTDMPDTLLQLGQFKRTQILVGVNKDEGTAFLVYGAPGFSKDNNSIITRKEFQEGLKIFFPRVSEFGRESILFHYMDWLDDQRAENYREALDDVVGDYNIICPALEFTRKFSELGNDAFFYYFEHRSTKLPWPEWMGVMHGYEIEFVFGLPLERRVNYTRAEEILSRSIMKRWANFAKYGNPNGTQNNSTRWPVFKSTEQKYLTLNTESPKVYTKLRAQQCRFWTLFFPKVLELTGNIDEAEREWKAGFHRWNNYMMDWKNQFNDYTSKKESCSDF
T2 sequence (P00772 27-266): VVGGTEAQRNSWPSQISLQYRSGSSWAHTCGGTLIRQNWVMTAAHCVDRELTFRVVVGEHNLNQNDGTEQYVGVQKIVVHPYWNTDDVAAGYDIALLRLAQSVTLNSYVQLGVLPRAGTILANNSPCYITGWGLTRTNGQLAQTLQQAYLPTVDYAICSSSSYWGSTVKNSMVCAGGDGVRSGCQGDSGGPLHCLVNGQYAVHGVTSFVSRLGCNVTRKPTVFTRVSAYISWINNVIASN
T4 sequence (P56817 46-501): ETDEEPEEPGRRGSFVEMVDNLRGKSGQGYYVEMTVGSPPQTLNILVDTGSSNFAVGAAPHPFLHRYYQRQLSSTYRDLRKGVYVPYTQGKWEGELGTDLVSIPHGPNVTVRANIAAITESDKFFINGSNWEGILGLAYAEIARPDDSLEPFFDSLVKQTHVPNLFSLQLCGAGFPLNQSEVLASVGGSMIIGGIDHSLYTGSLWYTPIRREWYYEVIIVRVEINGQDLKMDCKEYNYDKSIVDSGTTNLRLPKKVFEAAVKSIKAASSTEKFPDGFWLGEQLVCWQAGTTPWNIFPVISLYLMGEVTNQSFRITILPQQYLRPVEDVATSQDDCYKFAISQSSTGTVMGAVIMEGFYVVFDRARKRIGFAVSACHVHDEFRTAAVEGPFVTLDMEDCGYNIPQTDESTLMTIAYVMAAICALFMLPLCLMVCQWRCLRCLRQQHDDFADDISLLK
AChE, sequence (O42275 24-633): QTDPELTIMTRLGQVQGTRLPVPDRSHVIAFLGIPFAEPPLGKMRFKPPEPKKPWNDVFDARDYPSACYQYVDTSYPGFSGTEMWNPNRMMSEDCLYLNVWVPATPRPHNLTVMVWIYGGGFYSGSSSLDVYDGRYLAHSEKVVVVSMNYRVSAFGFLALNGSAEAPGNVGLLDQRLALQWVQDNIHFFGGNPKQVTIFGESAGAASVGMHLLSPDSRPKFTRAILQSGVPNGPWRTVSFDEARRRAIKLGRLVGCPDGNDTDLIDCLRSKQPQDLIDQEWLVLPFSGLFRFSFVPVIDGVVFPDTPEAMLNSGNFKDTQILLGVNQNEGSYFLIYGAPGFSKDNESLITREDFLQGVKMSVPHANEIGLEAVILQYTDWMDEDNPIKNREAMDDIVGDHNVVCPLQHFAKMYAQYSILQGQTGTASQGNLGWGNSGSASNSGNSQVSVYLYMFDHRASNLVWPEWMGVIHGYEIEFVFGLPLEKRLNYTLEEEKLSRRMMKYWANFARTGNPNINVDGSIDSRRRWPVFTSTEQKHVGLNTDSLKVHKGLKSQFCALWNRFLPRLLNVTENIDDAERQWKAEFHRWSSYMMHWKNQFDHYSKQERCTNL

SMILES: COc1ccc2c3c1O[C@H]1C[C@@H](O)C=C[C@@]31CCN(C)C2 [Galantamine]
- BChE Inhibition Type (BChE [1]): Competitive ^5

SMILES: C/C1=C\CC(C)(C)/C=C/C(=O)/C(C)=C/CC1 [Zerumbone]
- Inhibitory activity (%) against Trypsin (Trypsin; 50 µM): 5.00 ± 1.94%
- Inhibitory activity (%) against Trypsin (Trypsin; 100 µM): 3.75 ± 2.03%
- AChE Inhibition Type (AChE): Non-competitive
- BChE Inhibition Type (BChE [2]; Dixon and Lineweaver-Burk plots): Competitive
- Fold more potent BChE suppression in comparison to galantamine (BChE [2]; versus positive control galantamine): approximately 3 fold
- inhibition at 50 µM (Elastase; 50 µM): 3.46 ± 1.85%
- inhibition at 100 µM (Elastase; 100 µM): 3.57 ± 0.94%
- Effect on cognitive impairments and memory deficits related to scopolamine (Sprague–Dawley rats): attenuated cognitive impairments and memory deficits
- Genotoxicity, organ weight, clinical chemistry, hematology, histopathology (mice; mouse, in vivo, ip): did not cause any genotoxicity
- Acute toxicity in vivo (mice; previous in vivo studies): did not produce significant acute toxicity
- inhibition at 50 µM (Chymotrypsin; 50 µM): 3.45 ± 0.3%
- inhibition at 100 µM (Chymotrypsin; 100 µM): 2.71 ± 0.45%
- inhibition at 50 µM (BACE1; 50 µM): 13.3 ± 1.2%
- inhibition at 100 µM (BACE1; 100 µM): 16.1 ± 1.36%
- Effect on behavioral impairments and Aβ deposition (transgenic APP/PS1 mice): alleviated behavioral impairments and Aβ deposition

SMILES: C/C1=C\CC/C(C)=C/CC(C)(C)/C=C/C1 [α-Humulene]
- Activity in oxidative stress related inflammation and cancer cell proliferation [3]: virtually inactive
